Measured values published in US10787446B2 (GENENTECH, INC., priority 2015, dated 2020).

target: T1, hNav1.7 and the β1 subunit (Homo sapiens, UniProt Q15858); test: Tritiated compound competitive binding to membranes from cells heterologously expressing hNav1.7 and the β1 subunit (LBA); conditions: competition with 100 pM [3H]compound, 18 h, room temperature; IC50 by 4 parameter logistic model
T1 construct: expressed in transfected cells
Summary of the method: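 Membranes were incubated 18 h at room temperature with 100 pM [3H]-labelled NaV1.7 inhibitor and increasing test compound in 100 mM NaCl, 20 mM Tris HCl, pH 7.4. Bound radioligand was filtered on PEI-soaked GF/C, washed, and counted by scintillation. IC50 from a 4-parameter logistic fit of % inhibition.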

T1 sequence (Q15858 whole entry): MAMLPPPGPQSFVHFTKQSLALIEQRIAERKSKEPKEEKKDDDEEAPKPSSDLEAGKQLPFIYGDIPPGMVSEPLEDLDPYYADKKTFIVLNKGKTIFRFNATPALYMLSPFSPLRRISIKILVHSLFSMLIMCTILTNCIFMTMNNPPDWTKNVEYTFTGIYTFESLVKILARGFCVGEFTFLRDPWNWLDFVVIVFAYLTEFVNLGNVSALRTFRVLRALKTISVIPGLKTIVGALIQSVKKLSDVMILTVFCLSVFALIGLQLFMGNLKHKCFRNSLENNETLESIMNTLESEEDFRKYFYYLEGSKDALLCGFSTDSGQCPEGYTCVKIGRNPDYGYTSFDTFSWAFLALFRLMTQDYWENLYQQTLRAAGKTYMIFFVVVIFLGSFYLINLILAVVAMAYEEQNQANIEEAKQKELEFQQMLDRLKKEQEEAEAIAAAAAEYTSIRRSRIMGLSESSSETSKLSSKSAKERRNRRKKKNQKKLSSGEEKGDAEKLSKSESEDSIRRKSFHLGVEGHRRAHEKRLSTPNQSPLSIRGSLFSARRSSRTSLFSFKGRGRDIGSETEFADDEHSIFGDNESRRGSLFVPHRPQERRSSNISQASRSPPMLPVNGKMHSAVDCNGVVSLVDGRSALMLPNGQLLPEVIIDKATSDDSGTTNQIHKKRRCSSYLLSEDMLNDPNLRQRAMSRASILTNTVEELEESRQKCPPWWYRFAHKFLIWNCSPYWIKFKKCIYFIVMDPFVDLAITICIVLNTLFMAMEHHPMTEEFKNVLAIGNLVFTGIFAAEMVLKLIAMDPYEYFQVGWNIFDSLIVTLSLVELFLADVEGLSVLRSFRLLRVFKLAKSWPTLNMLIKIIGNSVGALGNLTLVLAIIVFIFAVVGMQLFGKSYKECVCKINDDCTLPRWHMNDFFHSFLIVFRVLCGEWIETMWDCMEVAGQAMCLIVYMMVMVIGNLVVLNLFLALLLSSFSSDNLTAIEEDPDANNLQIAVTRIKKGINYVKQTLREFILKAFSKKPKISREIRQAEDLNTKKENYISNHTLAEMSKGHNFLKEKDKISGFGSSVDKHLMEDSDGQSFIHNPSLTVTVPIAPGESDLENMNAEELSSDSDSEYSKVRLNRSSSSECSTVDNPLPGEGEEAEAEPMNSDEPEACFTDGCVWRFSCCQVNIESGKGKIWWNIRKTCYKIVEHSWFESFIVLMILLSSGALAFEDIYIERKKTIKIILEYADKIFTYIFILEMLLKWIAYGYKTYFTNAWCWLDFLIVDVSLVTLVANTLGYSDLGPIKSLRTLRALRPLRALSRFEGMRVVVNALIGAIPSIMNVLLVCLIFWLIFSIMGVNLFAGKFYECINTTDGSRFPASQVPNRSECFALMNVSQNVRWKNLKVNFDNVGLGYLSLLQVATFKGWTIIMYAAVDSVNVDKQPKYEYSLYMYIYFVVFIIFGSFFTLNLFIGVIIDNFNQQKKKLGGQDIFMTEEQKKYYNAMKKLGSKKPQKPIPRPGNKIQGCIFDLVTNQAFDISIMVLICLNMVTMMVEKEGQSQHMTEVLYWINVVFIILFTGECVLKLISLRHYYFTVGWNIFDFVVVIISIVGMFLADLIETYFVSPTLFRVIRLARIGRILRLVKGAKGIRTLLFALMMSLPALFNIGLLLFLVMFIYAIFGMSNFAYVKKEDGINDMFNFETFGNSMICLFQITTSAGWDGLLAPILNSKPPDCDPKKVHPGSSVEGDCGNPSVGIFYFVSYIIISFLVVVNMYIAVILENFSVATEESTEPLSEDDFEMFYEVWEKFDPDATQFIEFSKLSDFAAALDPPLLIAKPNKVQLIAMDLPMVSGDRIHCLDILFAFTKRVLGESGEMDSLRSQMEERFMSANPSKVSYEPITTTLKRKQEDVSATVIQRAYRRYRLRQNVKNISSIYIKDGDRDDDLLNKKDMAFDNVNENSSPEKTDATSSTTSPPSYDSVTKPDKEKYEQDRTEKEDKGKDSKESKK
T1 sequence (Q07699 19-218 partner): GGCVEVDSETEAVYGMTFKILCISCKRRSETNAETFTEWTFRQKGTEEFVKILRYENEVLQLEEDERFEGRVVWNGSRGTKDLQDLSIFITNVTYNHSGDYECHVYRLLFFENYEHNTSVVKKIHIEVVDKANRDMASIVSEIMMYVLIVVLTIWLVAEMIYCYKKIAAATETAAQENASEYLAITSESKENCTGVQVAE

In order of falling “Nav1.7 (LBA)” value:
1. O=S(=O)(Nc1ncns1)c1ccc2c(c1)OCC[C@H]2N1CC[C@@](O)(C(F)(F)F)C[C@H]1c1ccc(F)cc1 [Example 167, (R)-4-((2S,4S)-2-(4-fluorophenyl)-4-hydroxy-4-(trifluoromethyl)piperidin-1-yl)-N-(1,2,4-thiadiazol-5-yl)chroman-7-sulfonamide]  3 µM
2. O=S(=O)(Nc1ncns1)c1ccc2c(c1)OCC[C@H]2N1CC[C@@H](C(F)F)C[C@H]1c1ccc(F)cc1 [Example 185, (R)-4-((2S,4R)-4-(difluoromethyl)-2-(4-fluorophenyl)piperidin-1-yl)-N-(1,2,4-thiadiazol-5-yl)chroman-7-sulfonamide]  2.18 µM
3. O=S(=O)(Nc1ncns1)c1cc2c(cc1F)[C@H](N1CC[C@@](O)(C(F)(F)F)C[C@H]1c1ccc(F)cc1)CCO2 [Example 171, (R)-6-fluoro-4-((2S,4S)-2-(4-fluorophenyl)-4-hydroxy-4-(trifluoromethyl)piperidin-1-yl)-N-(1,2,4-thiadiazol-5-yl)chroman-7-sulfonamide]  2.028 µM
4. N#C[C@@H]1CCN([C@@H]2CCOc3cc(S(=O)(=O)Nc4ncns4)ccc32)[C@H](c2ccc(F)cc2)C1 [Example 178, (R)-4-((2S,4R)-4-cyano-2-(4-fluorophenyl)piperidin-1-yl)-N-(1,2,4-thiadiazol-5-yl)chroman-7-sulfonamide]  1.02 µM
5. CS(=O)(=O)[C@@H]1CCN([C@@H]2CCOc3cc(S(=O)(=O)Nc4nccs4)c(F)cc32)[C@H](c2ccc(F)cc2)C1 [Example 165, (R)-6-fluoro-4-((2S,4R)-2-(4-fluorophenyl)-4-(methylsulfonyl)piperidin-1-yl)-N-(thiazol-2-yl)chroman-7-sulfonamide]  1.01 µM
6. O=S(=O)(Nc1ncns1)c1ccc2c(c1)OCC[C@H]2N1CC[C@@H](CF)C[C@H]1c1ccc(F)cc1 [Example 181, (R)-4-((2S,4R)-4-(fluoromethyl)-2-(4-fluorophenyl)piperidin-1-yl)-N-(1,2,4-thiadiazol-5-yl)chroman-7-sulfonamide]  0.735 µM
7. O=S(=O)(Nc1ncns1)c1ccc2c(c1)OCC[C@@H]2N1CC[C@@H](OC(F)(F)F)C[C@H]1c1ccc(F)cc1 [Example 174, (S)-4-((2S,4R)-2-(4-fluorophenyl)-4-(trifluoromethoxy)piperidin-1-yl)-N-(1,2,4-thiadiazol-5-yl)chroman-7-sulfonamide]  0.235 µM
8. CS(=O)(=O)[C@H]1CCN([C@@H]2CCOc3cc(S(=O)(=O)Nc4ncns4)ccc32)[C@@H](c2ccc(F)cc2)C1 [Example 164, (R)-4-((2R,4S)-2-(4-fluorophenyl)-4-(methylsulfonyl)piperidin-1-yl)-N-(1,2,4-thiadiazol-5-yl)chroman-7-sulfonamide]  0.208 µM
9. O=S(=O)(Nc1ncns1)c1ccc2c(c1)OCC[C@H]2N1CC[C@@H](C(F)(F)F)C[C@H]1c1ccccn1 [Example 191, (R)-4-((2S,4R)-2-(pyridin-2-yl)-4-(trifluoromethyl)piperidin-1-yl)-N-(1,2,4-thiadiazol-5-yl)chroman-7-sulfonamide]  0.176 µM
10. O=S(=O)(Nc1ncns1)c1ccc2c(c1)OCC[C@H]2N1CC[C@](O)(C(F)(F)F)C[C@@H]1c1ccc(F)cc1 [Example 170, (R)-4-((2R,4R)-2-(4-fluorophenyl)-4-hydroxy-4-(trifluoromethyl)piperidin-1-yl)-N-(1,2,4-thiadiazol-5-yl)chroman-7-sulfonamide]  0.175 µM
11. N#C[C@H]1CCN([C@@H]2CCOc3cc(S(=O)(=O)Nc4ncns4)ccc32)[C@@H](c2ccc(F)cc2)C1 [Example 180, (R)-4-((2R,4S)-4-cyano-2-(4-fluorophenyl)piperidin-1-yl)-N-(1,2,4-thiadiazol-5-yl)chroman-7-sulfonamide]  0.158 µM
12. O=S(=O)(Nc1ncns1)c1ccc2c(c1)OCC[C@H]2N1CC[C@H](CF)C[C@@H]1c1ccc(F)cc1 [Example 184, (R)-4-((2R,4S)-4-(fluoromethyl)-2-(4-fluorophenyl)piperidin-1-yl)-N-(1,2,4-thiadiazol-5-yl)chroman-7-sulfonamide]  0.132 µM
13. O=S(=O)(Nc1ncns1)c1ccc2c(c1)OCC[C@H]2N1CC[C@H](C(F)F)C[C@@H]1c1ccc(F)cc1 [Example 188, (R)-4-((2R,4S)-4-(difluoromethyl)-2-(4-fluorophenyl)piperidin-1-yl)-N-(1,2,4-thiadiazol-5-yl)chroman-7-sulfonamide]  0.131 µM
14. O=S(=O)(Nc1nccs1)c1cc2c(cc1F)[C@H](N1CC[C@@H](C(F)(F)F)C[C@H]1c1ccncc1)CCO2 [Example 195, (R)-6-fluoro-4-((2S,4R)-2-(pyridin-4-yl)-4-(trifluoromethyl)piperidin-1-yl)-N-(thiazol-2-yl)chroman-7-sulfonamide]  0.0901 µM
15. O=S(=O)(Nc1ncns1)c1ccc2c(c1)OCC[C@@H]2N1CC[C@](O)(C(F)(F)F)C[C@@H]1c1ccc(F)cc1 [Example 169, (S)-4-((2R,4R)-2-(4-fluorophenyl)-4-hydroxy-4-(trifluoromethyl)piperidin-1-yl)-N-(1,2,4-thiadiazol-5-yl)chroman-7-sulfonamide]  0.0682 µM
16. O=S(=O)(Nc1nccs1)c1cc2c(cc1F)[C@H](N1CC[C@@H](C(F)(F)F)C[C@H]1c1ccccn1)CCO2 [Example 190, (R)-6-fluoro-4-((2S,4R)-2-(pyridin-2-yl)-4-(trifluoromethyl)piperidin-1-yl)-N-(thiazol-2-yl)chroman-7-sulfonamide]  0.0448 µM
17. O=S(=O)(Nc1ncns1)c1ccc2c(c1)OCC[C@H]2N1CC[C@H](OC(F)(F)F)C[C@@H]1c1ccc(F)cc1 [Example 176, (R)-4-((2R,4S)-2-(4-fluorophenyl)-4-(trifluoromethoxy)piperidin-1-yl)-N-(1,2,4-thiadiazol-5-yl)chroman-7-sulfonamide]  0.0248 µM
18. CS(=O)(=O)[C@H]1CCN([C@H]2CCOc3cc(S(=O)(=O)Nc4ncns4)ccc32)[C@@H](c2ccc(F)cc2)C1 [Example 163, (S)-4-((2R,4S)-2-(4-fluorophenyl)-4-(methylsulfonyl)piperidin-1-yl)-N-(1,2,4-thiadiazol-5-yl)chroman-7-sulfonamide]  0.0223 µM
19. N#C[C@H]1CCN([C@H]2CCOc3cc(S(=O)(=O)Nc4ncns4)ccc32)[C@@H](c2ccc(F)cc2)C1 [Example 179, (S)-4-((2R,4S)-4-cyano-2-(4-fluorophenyl)piperidin-1-yl)-N-(1,2,4-thiadiazol-5-yl)chroman-7-sulfonamide]  0.0109 µM
20. O=S(=O)(Nc1nccs1)c1cc2c(cc1F)[C@H](N1CC[C@@H](C(F)(F)F)C[C@H]1c1cccnc1)CCO2 [Example 193, (R)-6-fluoro-4-((2S,4R)-2-(pyridin-3-yl)-4-(trifluoromethyl)piperidin-1-yl)-N-(thiazol-2-yl)chroman-7-sulfonamide]  0.0103 µM
21. O=S(=O)(Nc1ncns1)c1ccc2c(c1)OCC[C@@H]2N1CC[C@H](CF)C[C@@H]1c1ccc(F)cc1 [Example 183, (S)-4-((2R,4S)-4-(fluoromethyl)-2-(4-fluorophenyl)piperidin-1-yl)-N-(1,2,4-thiadiazol-5-yl)chroman-7-sulfonamide]  0.00652 µM
22. N#C[C@@H]1CCN([C@H]2CCOc3cc(S(=O)(=O)Nc4ncns4)ccc32)[C@H](c2ccc(F)cc2)C1 [Example 177, (S)-4-((2S,4R)-4-cyano-2-(4-fluorophenyl)piperidin-1-yl)-N-(1,2,4-thiadiazol-5-yl)chroman-7-sulfonamide]  0.00584 µM
23. O=S(=O)(Nc1ncns1)c1ccc2c(c1)OCC[C@@H]2N1CC[C@@H](CF)C[C@H]1c1ccc(F)cc1 [Example 182, (S)-4-((2S,4R)-4-(fluoromethyl)-2-(4-fluorophenyl)piperidin-1-yl)-N-(1,2,4-thiadiazol-5-yl)chroman-7-sulfonamide]  0.00399 µM
24. O=S(=O)(Nc1ncns1)c1ccc2c(c1)OCC[C@@H]2N1CC[C@H](OC(F)(F)F)C[C@@H]1c1ccc(F)cc1 [Example 175, (S)-4-((2R,4S)-2-(4-fluorophenyl)-4-(trifluoromethoxy)piperidin-1-yl)-N-(1,2,4-thiadiazol-5-yl)chroman-7-sulfonamide]  0.00305 µM
25. O=S(=O)(Nc1ncns1)c1ccc2c(c1)OCC[C@@H]2N1CC[C@H](C(F)F)C[C@@H]1c1ccc(F)cc1 [Example 187, (S)-4-((2R,4S)-4-(difluoromethyl)-2-(4-fluorophenyl)piperidin-1-yl)-N-(1,2,4-thiadiazol-5-yl)chroman-7-sulfonamide]  0.00255 µM
26. O=S(=O)(Nc1ncns1)c1ccc2c(c1)OCC[C@@H]2N1CC[C@@H](C(F)F)C[C@H]1c1ccc(F)cc1 [Example 186, (S)-4-((2S,4R)-4-(difluoromethyl)-2-(4-fluorophenyl)piperidin-1-yl)-N-(1,2,4-thiadiazol-5-yl)chroman-7-sulfonamide]  0.00214 µM
27. CS(=O)(=O)[C@@H]1CCN([C@H]2CCOc3cc(S(=O)(=O)Nc4nccs4)c(F)cc32)[C@H](c2ccc(F)cc2)C1 [Example 166, (S)-6-fluoro-4-((2S,4R)-2-(4-fluorophenyl)-4-(methylsulfonyl)piperidin-1-yl)-N-(thiazol-2-yl)chroman-7-sulfonamide]  0.00212 µM
28. O=S(=O)(Nc1ncns1)c1ccc2c(c1)OCC[C@H]2N1CC[C@@H](OC(F)(F)F)C[C@H]1c1ccc(F)cc1 [Example 173, (R)-4-((2S,4R)-2-(4-fluorophenyl)-4-(trifluoromethoxy)piperidin-1-yl)-N-(1,2,4-thiadiazol-5-yl)chroman-7-sulfonamide]  0.000895 µM
29. O=S(=O)(Nc1ncns1)c1ccc2c(c1)OCC[C@@H]2N1CC[C@@](O)(C(F)(F)F)C[C@H]1c1ccc(F)cc1 [Example 168, (S)-4-((2S,4S)-2-(4-fluorophenyl)-4-hydroxy-4-(trifluoromethyl)piperidin-1-yl)-N-(1,2,4-thiadiazol-5-yl)chroman-7-sulfonamide]  0.000878 µM
